Among the test systems are HCC-2998 colon; OVCAR-8 ovarian; NCI-H226 lung; TK-10 renal; MDA-MB-231 breast; SR leukemia; OVCAR-3 ovarian; U251 CNS; UACC-257 melanoma; HL-60(TB) leukemia.
What all share (experiment): NCI-60 cell line screen, 48 h

Molecules are shown by their SMILES. Where “and” joins values, the source holds several entries; their conditions need not be identical. Identical values can stand only once.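 Five concentrations, 48 hours, 96-well plates. GI50 = concentration required for 50% inhibition of growth. TGI denotes the concentration required for complete inhibition of growth.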

`COc1ccc(S(=O)(=O)NC2=NCCN2C(=S)SN2CCn3c2nsc3=S)cc1OC`: the GI50 with HCC-2998 colon was 24.7 µM; with OVCAR-8 ovarian, 29.5 µM; in the assay on NCI-H226 lung it was 26.5 µM; with TK-10 renal, 22.2 µM; with MDA-MB-231 breast, 26.3 µM; in the assay with SR leukemia, 22.6 µM. For the same compound, the GI50 in the assay with OVCAR-3 ovarian was 21 µM; with U251 CNS, 22.3 µM; in the assay with UACC-257 melanoma, 25.1 µM; in the assay on HL-60(TB) leukemia, over 100 µM. The TGI with HCC-2998 colon was 44.1 µM; in the assay with OVCAR-8 ovarian it was over 100 µM; in the assay with NCI-H226 lung it was 81.5 µM; in the assay on TK-10 renal, 73.8 µM; with MDA-MB-231 breast, over 100 µM; in the assay with SR leukemia, over 100 µM. Besides, the TGI in the assay with OVCAR-3 ovarian is 47 µM; in the assay on U251 CNS, 53.4 µM; in the assay on UACC-257 melanoma it was 82.9 µM; in the assay on HL-60(TB) leukemia it was over 100 µM.

As to `COc1ccc2c(c1)C(=O)c1c-2c(OCCN(C)C)nc2cc(OC)ccc12`, the GI50 in the assay with HCC-2998 colon was 1.33 µM; in the assay with OVCAR-8 ovarian it was 0.957 µM; in the assay with NCI-H226 lung, 1.33 µM; in the assay on TK-10 renal, 3.14 µM; with MDA-MB-231 breast it was 1.42 µM; in the assay with SR leukemia, 0.264 µM. The GI50 with OVCAR-3 ovarian was 1.59 µM; in the assay with U251 CNS, 1.2 µM; with UACC-257 melanoma, 3.19 µM; in the assay on HL-60(TB) leukemia, 1.98 µM. Moreover, the TGI worked out at 2.85 µM in the assay with HCC-2998 colon; 5.35 µM in the assay with OVCAR-8 ovarian; 3.32 µM in the assay on NCI-H226 lung; 13.7 µM with TK-10 renal; 3.88 µM with MDA-MB-231 breast; 1.42 µM in the assay with SR leukemia. Moreover, the TGI in the assay with OVCAR-3 ovarian turned out to be 4.06 µM; in the assay on U251 CNS, 2.93 µM; with UACC-257 melanoma, 9.96 µM; with HL-60(TB) leukemia it was 4.26 µM.

For `CC(C)(C)OC(=O)N1CC(Cn2cc(C(F)(F)F)c3c(Cl)ncnc32)C1`, the GI50 was 1.79 µM in the assay on HCC-2998 colon; 1.84 µM in the assay on OVCAR-8 ovarian; 18.9 µM in the assay with NCI-H226 lung; 24.6 µM in the assay on TK-10 renal; 6.92 µM in the assay with MDA-MB-231 breast; 0.726 µM with SR leukemia. In addition, the GI50 with OVCAR-3 ovarian is 1.92 µM; in the assay on U251 CNS, 1.79 µM; with UACC-257 melanoma it was 2.2 µM; with HL-60(TB) leukemia, 2.37 µM. The TGI was 3.34 µM in the assay with HCC-2998 colon; 3.58 µM in the assay on OVCAR-8 ovarian; 41.9 µM with NCI-H226 lung; 62.5 µM in the assay with TK-10 renal; 23.4 µM in the assay with MDA-MB-231 breast; over 100 µM in the assay on SR leukemia. Further, the TGI in the assay on OVCAR-3 ovarian is 3.6 µM; in the assay with U251 CNS, 3.26 µM; with UACC-257 melanoma it was 5.43 µM; with HL-60(TB) leukemia, 5.82 µM.

Consider `Cc1cc(C(=O)N[C@@H](CCC(=O)O)C(=O)O)sc1CC[C@@H]1CNc2nc(N)[nH]c(=O)c2C1`, for which the GI50 with HCC-2998 colon is 0.0751 µM; in the assay with OVCAR-8 ovarian, under 0.0172 µM; with NCI-H226 lung, under 0.0245 µM; in the assay with TK-10 renal it was under 0.0154 µM; in the assay with MDA-MB-231 breast, 5.56 µM; in the assay with SR leukemia, under 0.01 µM. In addition, the GI50 is 0.048 µM with OVCAR-3 ovarian, 0.0274 µM in the assay on U251 CNS, 0.0559 µM in the assay on UACC-257 melanoma and under 0.0124 µM in the assay on HL-60(TB) leukemia. The TGI in the assay on HCC-2998 colon is over 100 µM; in the assay with OVCAR-8 ovarian, over 90.6 µM; in the assay on NCI-H226 lung, over 100 µM; in the assay with TK-10 renal it was over 100 µM; in the assay on MDA-MB-231 breast, over 100 µM; in the assay on SR leukemia it was over 100 µM. The TGI with OVCAR-3 ovarian, in the assay with U251 CNS, in the assay on UACC-257 melanoma and with HL-60(TB) leukemia was over 100 µM each time.

As for `COc1ccccc1-c1ccc2nc(NC(=O)Nc3cc(C(F)(F)F)cc(C(F)(F)F)c3)sc2c1`, the GI50 was 2.65 µM with HCC-2998 colon; 3.04 µM in the assay on OVCAR-8 ovarian; 2.16 µM in the assay with NCI-H226 lung; 4.03 µM in the assay with TK-10 renal; 1.95 µM in the assay on MDA-MB-231 breast; 1.76 µM in the assay with SR leukemia. The GI50 is 1.58 µM in the assay with OVCAR-3 ovarian, 2.31 µM in the assay with U251 CNS, 2.31 µM in the assay with UACC-257 melanoma and 2.01 µM with HL-60(TB) leukemia. Further, the TGI in the assay on HCC-2998 colon is 11.1 µM; in the assay on OVCAR-8 ovarian, 11.2 µM; in the assay with NCI-H226 lung, 5.67 µM; with TK-10 renal, 13.2 µM; in the assay on MDA-MB-231 breast it was 4.24 µM; with SR leukemia it was 5.25 µM. In addition, the TGI is 4.58 µM in the assay on OVCAR-3 ovarian, 10.3 µM in the assay with U251 CNS, 6.52 µM in the assay with UACC-257 melanoma and 4.53 µM with HL-60(TB) leukemia.

Regarding `CSC1=Nc2c(c(C)c(-c3ccccc3)n2CCCCl)C2=NC(=O)CN12`, the GI50 in the assay with HCC-2998 colon was 4.52 µM; in the assay on OVCAR-8 ovarian it was 16.3 µM; with NCI-H226 lung, 11 µM; with TK-10 renal, 8.45 µM; in the assay on MDA-MB-231 breast, 5.64 µM; in the assay on SR leukemia, 3.45 µM. For the same compound, the GI50 in the assay with OVCAR-3 ovarian was 8.28 µM; in the assay with U251 CNS, 3.92 µM; in the assay with UACC-257 melanoma it was 12.5 µM; in the assay with HL-60(TB) leukemia, 3.41 µM. The TGI in the assay on HCC-2998 colon is 19.7 µM; in the assay with OVCAR-8 ovarian, 72.8 µM; in the assay on NCI-H226 lung it was 29.8 µM; with TK-10 renal it was 78.3 µM; with MDA-MB-231 breast it was 23.8 µM; with SR leukemia, over 100 µM. In addition, the TGI in the assay with OVCAR-3 ovarian is 36.2 µM; in the assay on U251 CNS, 16.4 µM; with UACC-257 melanoma, 28.4 µM; with HL-60(TB) leukemia, over 100 µM.

As for `COc1ccc2c(O)c(/C=C3\N=Nc4ncccc43)oc2c1C[C@H]1CCNC[C@H]1F`, the GI50 in the assay on HCC-2998 colon was 2.38 µM; in the assay on OVCAR-8 ovarian it was 0.477 µM; in the assay with NCI-H226 lung, 0.16 µM; in the assay on TK-10 renal, 0.479 µM; in the assay with MDA-MB-231 breast it was 0.184 µM; in the assay with SR leukemia, 0.03 µM. Besides, the GI50 in the assay on OVCAR-3 ovarian is 0.431 µM; in the assay on U251 CNS, 0.307 µM; in the assay with UACC-257 melanoma it was 2.66 µM; with HL-60(TB) leukemia, 0.246 µM. Besides, the TGI came out at 11.5 µM in the assay on HCC-2998 colon; 12.3 µM in the assay with OVCAR-8 ovarian; 5.29 µM in the assay on NCI-H226 lung; 9.13 µM in the assay with TK-10 renal; 3.02 µM with MDA-MB-231 breast; 3.18 µM with SR leukemia. Also, the TGI with OVCAR-3 ovarian was 11.4 µM; in the assay with U251 CNS, 3.29 µM; in the assay with UACC-257 melanoma, 10.2 µM; with HL-60(TB) leukemia it was 0.625 µM.

As to `O=C1c2ccccc2C(=O)c2c(NC(=O)C(Cl)CCl)cccc21` (stereo not given), the TGI is 32.4 µM with HCC-2998 colon; over 39.1 µM in the assay with OVCAR-8 ovarian; 48.3 µM in the assay with NCI-H226 lung; 18.1 µM in the assay with TK-10 renal; 18.4 µM with MDA-MB-231 breast; 0.347 µM with SR leukemia. Besides, the TGI was 23.1 µM in the assay with OVCAR-3 ovarian, over 38.4 µM in the assay on U251 CNS, 36.5 µM with UACC-257 melanoma and 2.68 µM in the assay with HL-60(TB) leukemia.

With `C=CCC(N[C@@H](CO)c1ccccc1)c1ccccn1` (stereo not given in full), the GI50 in the assay on HCC-2998 colon was over 100 µM; in the assay with OVCAR-8 ovarian it was over 100 µM; in the assay with NCI-H226 lung, over 100 µM; in the assay with TK-10 renal it was over 100 µM; in the assay on MDA-MB-231 breast it was over 100 µM; with SR leukemia, 18.3 µM. Moreover, the GI50 is over 100 µM with OVCAR-3 ovarian, over 100 µM in the assay on U251 CNS, 74.8 µM in the assay on UACC-257 melanoma and 24 µM in the assay with HL-60(TB) leukemia. The TGI with HCC-2998 colon, with OVCAR-8 ovarian, in the assay on NCI-H226 lung, in the assay with TK-10 renal, in the assay with MDA-MB-231 breast and with SR leukemia was over 100 µM throughout. The TGI with OVCAR-3 ovarian, with U251 CNS, in the assay with UACC-257 melanoma and with HL-60(TB) leukemia was over 100 µM each time.

In the case of `CCc1nc(-n2c(CC)nc3ccccc3c2=O)nc(N)c1-c1ccc(Cl)cc1`, the GI50 with HCC-2998 colon was 2.41 µM; with OVCAR-8 ovarian, 6.65 µM; with NCI-H226 lung, over 100 µM; in the assay with TK-10 renal it was 35.6 µM; in the assay with MDA-MB-231 breast it was over 100 µM; with SR leukemia it was over 100 µM. Besides, the GI50 in the assay with OVCAR-3 ovarian was 31.8 µM; in the assay on U251 CNS, over 100 µM; in the assay with UACC-257 melanoma, 13 µM; in the assay with HL-60(TB) leukemia, over 100 µM. Further, the TGI with HCC-2998 colon was over 21 µM; in the assay with OVCAR-8 ovarian, over 100 µM; in the assay on NCI-H226 lung it was over 100 µM; with TK-10 renal, over 100 µM; with MDA-MB-231 breast, over 100 µM; with SR leukemia, over 100 µM. In addition, the TGI with OVCAR-3 ovarian was over 100 µM; in the assay on U251 CNS, over 100 µM; with UACC-257 melanoma it was over 94.3 µM; in the assay on HL-60(TB) leukemia, over 100 µM.

Consider `COc1ccc(-c2ccc3ncc4c(c3c2)n(-c2ccc(N3CCNCC3)c(C(F)(F)F)c2)c(=O)n4C)cn1`, for which the GI50 in the assay on HCC-2998 colon is < 0.01 µM and 0.00675 µM; in the assay on OVCAR-8 ovarian, < 0.01 µM and 0.00948 µM; in the assay on NCI-H226 lung it was 0.00858 µM; with TK-10 renal, < 0.01 µM and 0.00865 µM; with MDA-MB-231 breast it was < 0.01 µM and 0.00601 µM; in the assay with SR leukemia, 0.02 µM and 0.00681 µM. Further, the GI50 with OVCAR-3 ovarian is < 0.01 µM and 0.00596 µM; in the assay on U251 CNS, < 0.01 µM and 0.00869 µM; with UACC-257 melanoma, 0.0169 µM and 0.021 µM; in the assay on HL-60(TB) leukemia, 0.0143 µM. Also, the TGI is 1.34 µM and 0.269 µM in the assay with HCC-2998 colon; 0.332 µM and 0.396 µM in the assay with OVCAR-8 ovarian; 0.116 µM in the assay on NCI-H226 lung; 0.0379 µM and 0.109 µM in the assay on TK-10 renal; 0.823 µM and 0.446 µM with MDA-MB-231 breast; 0.266 µM and 0.365 µM in the assay with SR leukemia. In addition, the TGI is 0.341 µM and 0.497 µM with OVCAR-3 ovarian; 0.13 µM and 0.429 µM with U251 CNS; 0.11 µM and 0.118 µM in the assay with UACC-257 melanoma; 0.113 µM in the assay on HL-60(TB) leukemia.

The record behind these values is PubChem BioAssay (NCI).
